Test results: patent publication US8853264B2, “Use of lignan compounds for treating or preventing inflammatory disease” (Newtree Industry Co., Ltd., priority 2005, dated 2014)

Test system: eosinophils
Assay: Counting of immune cells in bronchioalveolar lavage (BAL) fluid, asthma model
Type: in vivo, C57BL/6 (B6) male mice
Details: oral 400 μg/g and 800 μg/g
Description: 5 μL of allergen, AP (aspergillus protease, 1 mg/mL, Sigma-Aldrich, St. Louis, Mo.) was mixed with 45 μL of OVA (chicken egg ovalbumin, 0.5 mg/mL, Sigma-Aldrich). After 3 intraperitoneal injections with 4-day intervals, asthma was induced by 2 intranasal challenges with 4-day interval. The intranasal challenge was performed under isoflurane inhalational anesthesia. Macelignan dissolved in corn oil was orally administered every day.
Within 24 hours after the last allergen challenge, the mouse was anesthetized by intraperitoneal injection of 0.1 mg/g sodium pentobarbital. After tracheal intubation, flexiVent (Scireq®, Montreal, Canada) was connected to maintain stable ventilation. Thereafter, striated muscle was relaxed by intravenous (IV) administration of 0.08 mg/kg pancuronium (Sigma-Aldrich). Following airway hypersensitivity test by IV administration of acetylcholine (Sigma-Aldrich), 1 mL of DPBS (Dulbecco's phosphate buffered saline) was injected twice into the intubation tube using a syringe for bronchioalveolar lavage. Thereafter, the chest was opened and the lungs were subjected to ELISpot assay. […]
When asthma is induced, various inflammatory cells increase in the airway. […] After performing BAL once again and collecting the BAL fluid, its volume was measured. […]

Structure (SMILES): COc1cc(C[C@H](C)[C@H](C)Cc2ccc3c(c2)OCO3)ccc1O (single isomer, unassigned) [macelignan]
- other immune cells in the BAL fluid: Decrease of other immune cells was not observed
- eosinophils in the BAL fluid (vs vehicle (corn oil) group): decreased eosinophils
